Data from PubChem BioAssay (NCI).
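Grown in 96-well plates, cells were treated for 48 hours with each compound at five concentrations. Insufficient inhibition: endpoint recorded as highest concentration tested. TGI: total growth inhibition.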

Tests used:
Assay in all cases: inhibition of tumour cell growth, NCI panel, 48 h
CAKI-1 renal = tested on: CAKI-1 renal
UACC-62 melanoma = tested on: UACC-62 melanoma
LOX IMVI melanoma = tested on: LOX IMVI melanoma
OVCAR-8 ovarian = tested on: OVCAR-8 ovarian
SK-MEL-2 melanoma = tested on: SK-MEL-2 melanoma
SF-268 CNS = tested on: SF-268 CNS
TK-10 renal = tested on: TK-10 renal
NCI-H226 lung = tested on: NCI-H226 lung
SF-295 CNS = tested on: SF-295 CNS
SN12C renal = tested on: SN12C renal
HL-60(TB) leukemia = tested on: HL-60(TB) leukemia
MCF7 breast = tested on: MCF7 breast
MALME-3M melanoma = tested on: MALME-3M melanoma

Row | Compound | TGI (CAKI-1 renal) | TGI (UACC-62 melanoma) | TGI (LOX IMVI melanoma) | TGI (OVCAR-8 ovarian) | TGI (SK-MEL-2 melanoma) | TGI (SF-268 CNS) | TGI (TK-10 renal) | TGI (NCI-H226 lung) | TGI (SF-295 CNS) | TGI (SN12C renal) | TGI (HL-60(TB) leukemia) | TGI (MCF7 breast) | TGI (MALME-3M melanoma)
1 | O=Nc1c(O)cc(Nc2cccnc2)c2ccccc12 | > 100 µM | 55.6 µM | > 100 µM | > 100 µM | > 100 µM | 53.4 µM | > 100 µM | > 100 µM | > 100 µM | > 100 µM | 5.65 µM | > 100 µM | –
2 | O=C(N/N=C/C=C/c1ccc([N+](=O)[O-])o1)c1ccc(C(=O)N/N=C/C=C/c2ccc([N+](=O)[O-])o2)cc1 | > 90 µM | > 100 µM | > 75.8 µM | 27.7 µM | > 100 µM | > 58.5 µM | > 69.7 µM | > 100 µM | > 100 µM | > 54.5 µM | > 65.2 µM | > 100 µM | 35.2 µM
3 | CSc1c(C#N)c(S)[nH]c(=O)c1C#N | > 100 µM | > 100 µM | > 100 µM | > 100 µM | > 100 µM | > 100 µM | > 100 µM | > 100 µM | – | > 100 µM | > 100 µM | > 100 µM | 51.5 µM
4 | CC1C(c2ccccc2O)c2cc3c(cc2OC1N1CCOCC1)OCO3 (centres undefined) | 77.5 µM | 90.2 µM | 41.3 µM | > 100 µM | 72.5 µM | > 100 µM | 97.6 µM | 77.4 µM | 62 µM | > 100 µM | 40 µM | > 100 µM | 35.1 µM
5 | CN(C(=O)c1ccc(OCCCC(=O)O)c(Cl)c1Cl)C1CCCC1 | > 100 µM | > 100 µM | > 100 µM | > 100 µM | > 100 µM | > 100 µM | – | > 100 µM | > 100 µM | > 100 µM | > 100 µM | > 100 µM | > 100 µM
6 | O=C1NC(=S)NC(=O)C1=C/C=C/c1ccc([N+](=O)[O-])cc1 | 30.8 µM | 28.7 µM | 22.6 µM | 47.6 µM | 30.9 µM | 36.8 µM | 22.5 µM | 44.3 µM | 33.1 µM | 34.7 µM | > 100 µM | 34.9 µM | 80.8 µM
7 | COC1CC(O[C@H]2CC[C@@]3(C)[C@@H](CC[C@]4(O)[C@@H]3CC[C@]3(C)[C@@H](C(C)=O)[C@H](OC(=O)CC(C)C)[C@@H](OC(=O)c5ccccc5)[C@@]34O)C2)OC(C)C1OC1CC(OC)C(OC2OC(C)C(O)C(OC)C2O)C(C)O1 (some centres undefined) | > 25 µM | – | > 25 µM | > 25 µM | > 25 µM | > 25 µM | > 25 µM | > 25 µM | > 25 µM | > 25 µM | > 25 µM | > 25 µM | > 25 µM
8 | CC1(C)OC(=O)C(Cc2ccccc2)(Cc2ccccc2)C(=O)O1 | > 100 µM | > 100 µM | > 100 µM | > 100 µM | > 100 µM | > 100 µM | > 100 µM | > 100 µM | > 100 µM | > 100 µM | > 100 µM | > 100 µM | > 100 µM
9 | C#CC1NC(=O)C1N(CC)CC (centres undefined) | > 100 µM | > 100 µM | > 100 µM | > 100 µM | > 100 µM | > 100 µM | > 100 µM | > 100 µM | > 100 µM | > 100 µM | > 100 µM | > 100 µM | > 100 µM
10 | O=C1C(S(=O)(=O)c2ccccc2)=C(CS(=O)(=O)c2ccccc2)[C@@H](OCc2ccccc2)[C@@H]1OCc1ccccc1 | > 100 µM | 40 µM | 32.9 µM | 39.8 µM | 33.5 µM | > 100 µM | > 100 µM | 37.3 µM | 40.4 µM | 76.4 µM | 43.9 µM | > 100 µM | 36.1 µM
11 | Nc1nc(=S)n(-c2ccc(Cl)cc2)c2nc3ccccc3cc12 | > 100 µM | > 100 µM | > 100 µM | > 100 µM | > 100 µM | > 100 µM | 98.3 µM | > 100 µM | > 100 µM | > 100 µM | > 100 µM | > 100 µM | > 100 µM
12 | N#Cc1c(O)c2ccccc2[nH]c1=O | > 100 µM | > 100 µM | > 100 µM | > 100 µM | > 100 µM | – | > 100 µM | > 100 µM | > 100 µM | > 100 µM | > 100 µM | > 100 µM | > 100 µM
13 | CC1(C)C2CCC(O)(C2)C1N (centres undefined) | > 100 µM | > 100 µM | > 100 µM | > 100 µM | > 100 µM | > 100 µM | > 100 µM | > 100 µM | > 100 µM | > 100 µM | > 31.6 µM | > 100 µM | > 100 µM
14 | COc1cc2c[n+](C)c3c(c2cc1OC)Cc1cc2c(cc1-3)OCO2 | > 100 µM | > 100 µM | > 100 µM | > 100 µM | > 100 µM | > 100 µM | > 100 µM | > 100 µM | > 100 µM | > 100 µM | > 100 µM | > 100 µM | > 100 µM
15 | O=C1/C(=C/c2ccc(Cl)cc2)CSC/C1=C\c1ccc(Cl)cc1 | 11.8 µM | 2.83 µM | 5.3 µM | 13.8 µM | 37.8 µM | 22 µM | 13 µM | 5.59 µM | 4.21 µM | 9.52 µM | 3.69 µM | 13.1 µM | 36.9 µM
16 | CN(C)c1ccc(/C=C/c2cc(-c3ccccc3)[n+](C)n2-c2ccccc2)cc1 | 13 µM | > 39.7 µM | 14.2 µM | – | 0.953 µM | 4.77 µM | 30.5 µM | 71 µM | 16.2 µM | 7.6 µM | 0.128 µM | > 33.3 µM | –
17 | Cc1ccc(N2C(N)=C(C#N)C(C#N)(C#N)C2c2ccccc2)cc1 (centres undefined) | 30.9 µM | 26.7 µM | 23.9 µM | 40.2 µM | 38.2 µM | 65.9 µM | 28 µM | 38.9 µM | 60.3 µM | 30.9 µM | 6.15 µM | 18.8 µM | 27.8 µM
